In the NIST ThermoML archive (doi:10.1016/j.jct.2010.07.001):
Numbers after ± are expanded uncertainties.

Legend:
[1] = Crystal; DTA
[2] = Molar enthalpy of transition or fusion; conditions: Crystal; DSC

Row | SMILES | Normal melting temperature [1] [°C] | Molar enthalpy of transition or fusion [2] [kcal/mol]
1 | CC(C)(C)NCC(O)COc1cccc2c1CC(O)C(O)C2 (configuration not stated) | 130.2 ± 2.1 | 12.7 ± 0.335
2 | c1ccc(-c2ccc(C(c3ccccc3)n3ccnc3)cc2)cc1 (configuration not stated) [1-([1,1'-biphenyl]-4-yl(phenyl)methyl)-1H-imidazole] | 150 ± 2.1 | 8.96 ± 0.239
3 | CC(C)NCC(O)COc1ccc(CC(N)=O)cc1 (configuration not stated) [2-(4-(2-hydroxy-3-(isopropylamino)propoxy)phenyl)acetamide] | 151.4 ± 2.1 | 8.75 ± 0.239
4 | Cc1cccc(Nc2ccccc2C(=O)O)c1C [2-((2,3-dimethylphenyl)amino)benzoic acid] | 230.0 ± 2.1 | 17 ± 9.56
5 | C[C@]12CC[C@@H]3c4ccc(O)cc4CC[C@H]3[C@@H]1CCC2=O [3-hydroxy-1,3,5(10)-estratrien-17-one] | 254.0 ± 2.1 | 10.8 ± 0.287
6 | CS(=O)(=O)Nc1ccc([N+](=O)[O-])cc1Oc1ccccc1 [nimesulide] | 149.1 ± 2.1 | 11.3 ± 0.311
